Consider 2 compounds from patent US20250352588A1, “EFFECT OF A PROBIOTIC COMPOSITION ON VAGINAL LACTOBACILLUS SPECIES” (INTERNATIONAL N&H DENMARK APS, priority 2021, published 2025).

The structures appear in SMILES notation.

For assay [1], the system named is L. crispatus strains. To be noted: Borgogna et al., 2021; cited from earlier work.
Assay [2] concerns Lactobacillus crispatus 13331. The assay is described as follows: Growth experiments with probiotic supernatant and biogenic amines (OD600, 44 h). To be noted: highest physiological concentration (cadaverine 4990 μM, putrescine 3179 μM); putrescine effect from 0.5 h to end of experiment. It counts as cell-based. The method, then: The growth experiment was performed as described above but with some modifications. The Lactobacillus crispatus strain was cultured in SVF media (control), and in the SVF media containing one of the biogenic amines, and in the SVF media containing one of the biogenic amines and probiotic supernatant. The effect of all five biogenic amines was investigated independently on the pure culture of Lactobacillus crispatus 13331. Each test condition was investigated in triplicates in the honey-comb plate. […] The growth study was performed in SVF pH 4.5 using Bioscreen© C system measuring the optical density at 600 nm every 30 min for 44 h at 37° C. […] Growth experiments were performed in three independent biological replicates.

Turning to `NCCCCN` [putrescine], in assay [1], the “effect on growth of L. crispatus strains” value was “negatively affect the growth”. Besides, the “growth in the presence of biogenic amine alone vs strain alone (control)” value in assay [2] was “significant reduction in the growth”.

As for `NCCCCCN` [cadaverine], the “growth in the presence of biogenic amine alone vs strain alone (control)” value in assay [2] is “no statistically significant difference in growth”.
